EC50 data for 25 molecules are collected here from patent US10172863B2, “Purine derivatives useful as HSP90 inhibitors” (Sloan-Kettering Institute for Cancer Research, priority 2009, dated 2019).

The structures appear in SMILES notation. pEC50: −log10 of the molar value.

This experiment concerns SKBr3 cell Hsp90. Nature of the experiment: EC50 for Hsp90 binding in SKBr3 cell lysate. Particulars: read-out: EC50, binding to SKBr3 cell Hsp90.
Turning to `CC(C)NCCCn1c(Sc2cc3c(cc2-c2ccncc2)OCO3)nc2c(N)ncnc21` [Compound 4F-1, 9-(3-(isopropylamino)propyl)-8-(6-(pyridin-4-yl)benzo[d][1,3]dioxol-5-ylthio)-9H-purin-6-amine], the pEC50 is 5.02. `CC(C)NCCCn1c(Sc2cc3ccccc3cc2I)nc2c(N)ncnc21` [Compound 6B-25, 8-(3-iodonaphthalen-2-ylthio)-9-(3-(isopropylamino)propyl)-9H-purin-6-amine]: the pEC50 is 7.01.

Regarding `CC(C)NCCCn1c(Sc2cc3c(cc2-c2cc[nH]n2)OCCO3)nc2c(N)ncnc21` [Compound 5D-2, 8-((7-(1H-pyrazol-3-yl)-2,3-dihydrobenzo[b][1,4]dioxin-6-yl)thio)-9-(3-(isopropylamino)propyl)-9H-purin-6-amine], the pEC50 is 7.95.

With `CC(C)NCCCn1c(Sc2cc3c(cc2C2C=COC2)OCO3)nc2c(N)ncnc21` (stereo not shown) [Compound 4C-41, 8-(6-(2,3-dihydrofuran-3-yl)benzo[d][1,3]dioxol-5-ylthio)-9-(3-(isopropylamino)propyl)-9H-purin-6-amine], the pEC50 is 5.68. Turning to `CC(C)CNCCN1C(Sc2cc3c(cc2I)OCCO3)=NC2C(N)=NC=NC21` (stereo not shown) [Compound 5A-2, 8-(7-Iodo-2,3-dihydrobenzo[b][1,4]dioxin-6-ylthio)-9-(2-(isobutylamino)ethyl)-5,9-dihydro-4H-purin-6-amine], the pEC50 is 7.46. Take `CC(C)(C)CNCCn1c(Sc2cc3c(cc2-c2ccco2)OCO3)nc2c(N)ncnc21` [Compound 4C-5, 8-(6-(furan-2-yl)benzo[d][1,3]dioxol-5-ylthio)-9-(2-(neopentylamino)ethyl)-9H-purin-6-amine]: the pEC50 was 8.19. In the case of `CC(C)NCCCn1c(Sc2cc3c(cc2-c2cn[nH]c2)OCO3)nc2c(N)ncnc21` [Compound 4G-1, 8-(6-(1H-pyrazol-4-yl)benzo[d][1,3]dioxol-5-ylthio)-9-(3-(isopropylamino)propyl)-9H-purin-6-amine], the pEC50 was 5.99. On to `CC(C)NCCCn1c(Sc2cc3c(cc2-c2ccc(N(C)C)cc2)OCO3)nc2c(N)ncnc21` [Compound 4A-5, 8-(6-(4-(dimethylamino)phenyl)benzo[d][1,3]dioxol-5-ylthio)-9-(3-(isopropylamino)propyl)-9H-purin-6-amine], for which the pEC50 is 5.60. With `COc1ccc(-c2cc3c(cc2Sc2nc4c(N)ncnc4n2CCCNC(C)C)OCO3)cc1` [Compound 4A-6, 9-(3-(isopropylamino)propyl)-8-(6-(4-methoxyphenyl)benzo[d][1,3]dioxol-5-ylthio)-9H-purin-6-amine], the pEC50 is 5.99. The value for `Cc1ccc(-c2cc3c(cc2Sc2nc4c(N)ncnc4n2CCNCC(C)(C)C)OCO3)o1` [Compound 4C-16, 8-(6-(5-methylfuran-2-yl)benzo[d][1,3]dioxol-5-ylthio)-9-(2-(neopentylamino)ethyl)-9H-purin-6-amine] was 7.99; that for `NCCCCCCNCCCn1c(Sc2cc3c(cc2-c2cc(C(F)(F)F)cc(C(F)(F)F)c2)OCO3)nc2c(N)ncnc21` [Compound 4A-4, N1-(3-(6-amino-8-(6-(3,5-bis(trifluoromethyl)phenyl)benzo[d][1,3]dioxol-5-ylthio)-9H-purin-9-yl)propyl)hexane-1,6-diamine] was 4.82; that for `CC(C)NCCCn1c(Sc2cc3c(cc2-c2ccnn2C)OCO3)nc2c(N)ncnc21` [Compound 4G-4, 9-(3-(isopropylamino)propyl)-8-(6-(1-methyl-1H-pyrazol-5-yl)benzo[d][1,3]dioxol-5-ylthio)-9H-purin-6-amine] was under 6.52. The value for `CC(C)NCCCn1c(Sc2cc3c(cc2C2C=CCN2)OCO3)nc2c(N)ncnc21` (stereo not shown) [Compound 4H-7, 8-(6-(2,5-dihydro-1H-pyrrol-2-yl)benzo[d][1,3]dioxol-5-ylthio)-9-(3-(isopropylamino)propyl)-9H-purin-6-amine] was 4.57.

Turning to `CC(C)NCCCn1c(Sc2cc3c(cc2CC#N)OCO3)nc2c(N)ncnc21` [Compound 4E-3, 2-(6-((6-amino-9-(3-(isopropylamino)propyl)-9H-purin-8-yl)thio)benzo[d][1,3]dioxol-5-yl)acetonitrile], the pEC50 was 5.95.

As to `Cc1ccc(-c2cc3c(cc2Sc2nc4c(N)ncnc4n2CCCNC(C)C)OCO3)o1` [Compound 4C-8, 9-(3-(isopropylamino)propyl)-8-(6-(5-methylfuran-2-yl)benzo[d][1,3]dioxol-5-ylthio)-9H-purin-6-amine], the pEC50 was 7.43. The value for `CC(C)NCCCn1c(Sc2cc3c(cc2-c2ccco2)OCO3)nc2c(N)ncnc21` [Compound 4C-1, 8-(6-(furan-2-yl)benzo[d][1,3]dioxol-5-ylthio)-9-(3-(isopropylamino)propyl)-9H-purin-6-amine] was 7.66; that for `CC(C)NCCCn1c(Sc2cc3c(cc2-c2ncco2)OCCO3)nc2c(N)ncnc21` [Compound 5B-34, 9-(3-(isopropylamino)propyl)-8-((7-(oxazol-2-yl)-2,3-dihydrobenzo[b][1,4]dioxin-6-yl)thio)-9H-purin-6-amine] was 8.46. Take `CC(C)NCCCn1c(Sc2cc3c(cc2-c2ccc(C=O)cc2)OCO3)nc2c(N)ncnc21` [Compound 4A-8, 4-(6-(6-amino-9-(3-(isopropylamino)propyl)-9H-purin-8-ylthio)benzo[d][1,3]dioxol-5-yl)benzaldehyde]: the pEC50 is under 5.52. Under `CC(C)NCCCn1c(Sc2cc3c(cc2-c2ccc(C=O)o2)OCO3)nc2c(N)ncnc21` [Compound 4C-6, 5-(6-(6-amino-9-(3-(isopropylamino)propyl)-9H-purin-8-ylthio)benzo[d][1,3]dioxol-5-yl)furan-2-carbaldehyde] stands 6.85.

For the molecule `CC(C)(C)CNCCn1c(Sc2cc3c(cc2-c2cc[nH]c2)OCO3)nc2c(N)ncnc21` [Compound 4H-4, 8-(6-(1H-pyrrol-3-yl)benzo[d][1,3]dioxol-5-ylthio)-9-(2-(neopentylamino)ethyl)-9H-purin-6-amine], the pEC50 was 7.61.

Turning to `CC(C)NCCCn1c(Sc2cc3c(cc2-c2cccs2)OCO3)nc2c(N)ncnc21` [Compound 4D-1, 9-(3-(isopropylamino)propyl)-8-(6-(thiophen-2-yl)benzo[d][1,3]dioxol-5-ylthio)-9H-purin-6-amine], the pEC50 is 7.10. The value for `CC(C)NCCCn1c(Sc2cc3c(cc2C2CC=CO2)OCO3)nc2c(N)ncnc21` (stereo not shown) [Compound 4C-40, 8-(6-(2,3-dihydrofuran-2-yl)benzo[d][1,3]dioxol-5-ylthio)-9-(3-(isopropylamino)propyl)-9H-purin-6-amine] was 6.29; that for `CC(C)NCCCn1c(Sc2cc3c(cc2I)OCCO3)nc2c(N)ncnc21` [Compound 5A-1, 8-(7-Iodo-2,3-dihydrobenzo[b][1,4]dioxin-6-ylthio)-9-(3-(isopropylamino)propyl)-9H-purin-6-amine] was 7.46. Under `COc1ccc(-c2ccco2)c(Sc2nc3c(N)ncnc3n2CCNCC(C)(C)C)c1` [Compound 7C-13, 8-(2-(furan-2-yl)-5-methoxyphenylthio)-9-(2-(neopentylamino)ethyl)-9H-purin-6-amine] stands 7.08; under `CC(C)NCCCn1c(Sc2cc3c(cc2-c2nccs2)OCO3)nc2c(N)ncnc21` [Compound 4D-16, 9-(3-(isopropylamino)propyl)-8-(6-(thiazol-2-yl)benzo[d][1,3]dioxol-5-ylthio)-9H-purin-6-amine], 7.33.
